Test results: patent US20240300945A1, “CLY SERIES COMPOUND, PREPARATION METHOD THEREFOR AND USE THEREOF IN PREPARATION OF DRUGS” (NANJING WELLBEST PHARMACEUTICAL CO., LTD, priority 2021, published 2024)

How the values were obtained:
[1] = system: rat pulmonary fibrosis model; assay: Rat pulmonary fibrosis model (bleomycin); assay type: in vivo, Wistar rats; details: 3 mg/kg·d tail vein, 14 days; for VEGFprotein in lung tissue / MMP-2 expression in lung tissue / MMP-9 expression in lung tissue / TIMP-1 expression in lung tissue / VEGF-mRNA in lung tissue: rat lung; for VEGFprotein in lung tissue: ELISA; for MMP-2 expression in lung tissue / MMP-9 expression in lung tissue / TIMP-1 expression in lung tissue: immunohistochemistry; for VEGF-mRNA in lung tissue: reverse transcription PCR; for CAT in peripheral blood / SOD in peripheral blood: rat peripheral blood
Description: (1) Reagents: bleomycin (4 mg/dose, Tianjin Taihe Pharmaceutical Co., Ltd.), mouse anti-mouse MMP monoclonal antibody (NEO Mark-ers Company), mouse anti-mouse TIMP-1 polyclonal antibody (Wuhan Shide Company), enzyme-linked immunosorbent assay (ELISA) kit (R&D Company of the United States), Quantscript RT Kit reverse transcription kit (Dalian TaKaRa Company).
The rats were, according to the number of body weight, divided into the blank control group, model group, and CLY series treatment group by random array method, with 12 rats in each group, half male and half female. The rats in each group were anesthetized by intraperitoneal injection of 2% pentobarbital sodium ([…]), fixed on the operating table, and injected by tracheotomy in the neck. The blank control group was injected with normal saline (1.25 ml/kg), and the model group and CLY treatment group were injected with 5 U/mL bleomycin solution (5 mg/kg), once a day, for 14 consecutive days. From one week after the establishment of the model, the corresponding CLY compound solution (3 mg/kg·d) was injected into the tail vein of each treatment group, and the same amount of normal saline was injected into the tail vein of the blank control group and the model group, once a day, for 14 consecutive days.
The peripheral venous blood of animals in each group was taken from the tail vein after modeling and 14 days after treatment, and the levels of superoxide dismutase (SOD) and catalase (CAT) in peripheral blood were measured. After taking blood from each group, the rats were sacrificed twice (after modeling and 14 days of treatment). The right lung tissue of the animals was stored in a refrigerator at −4° C. for detection of VEGF. The left lung tissue was routinely embedded in paraffin and sectioned. The expression of MMP subtype and TIMP-1 in the lung tissue of the rats was detected by immunohistochemistry. The right lung tissue was ground and homogenized, and the supernatant was taken after 3000 r/min high-speed centrifugation. The lung tissue VEGF protein was detected by ELISA, and the expression of VEGF-mRNA was detected by reverse transcription polymerase chain reaction.

RA model = assay: Rheumatoid arthritis (RA) model (Freund's adjuvant complete); assay type: in vivo, Wistar rats; details: RA rats, gavage 10 mg/kg once a day, 21 days; for IL-10 in serum / IL-17 in serum: ELISA; for Joint score (arthritis score): maximum 16 points
Description: Freund's Adjuvant Complete (FCA, purchased from Sigma, USA); IL-10 ELISA kit (Lianke Biotechnology Co., Ltd.); IL-17 ELISA kit (Raybiotech, USA). Eighteen 5-week-old female Wistar rats were randomly divided into the control group, RA model group, and CLY series compound treatment group, with 6 rats in each group. The control group: disinfected the right toe of rats with 75% alcohol, and injected 0.15 mL physiological saline subcutaneously into the right toe of rats. The RA model group: On the first day of the experiment, each rat was routinely disinfected, and 0.15 mL of FCA was injected subcutaneously into the right foot of the rat. The CLY series compound treatment group: On the first day after the experiment, each rat was routinely disinfected, and 0.15 mL of FCA was injected subcutaneously into the right plantar of the rat. After 7 days, CLY series compound was administered by gavage with a dose of 10 mg/kg once a day. The RA model group and control group were administered by gavage with normal saline (10 mg/kg·d) every day for 21 consecutive days. On the 21st day after the intervention of CLY series compounds, 3 mL of blood was collected from the heart of rats, and the serum was isolated. The levels of IL-10 and IL-17 in the serum of rats were detected by ELISA. After the 21st day of intervention, the arthritis score of each group of rats was measured, and the swelling degree of the right toe joint of each group of rats was measured. According to the inflammatory reaction of RA rats, the severity of the ankle joint was scored as 0 to 4, which was normal; 1 point, slightly red and slightly swollen ankle joint; 2 points: erythema and slight swelling from ankle joint to metatarsal joint or metacarpal joint; 3 points: erythema and moderate swelling from ankle joint to metacarpal joint or metatarsophalangeal joint; 4 points, the ankle joint to toe joint were severely red and swollen. Added the limb scores of each rat as the arthritis score, and the maximum score was 16 points.

mouse eczema model = assay: Mouse eczema model: ear thickness; assay type: in vivo, C57BL/6 mice; details: after modeling, 14th day; 0.1% cream for external use twice a day, 10 days (positive: aloxone)
Excerpt: Preparation method of CLY cream: the matrix components included methyl silicone oil (15%), stearic acid (6%), white vaseline (5%), liquid paraffin (5%), octadecanol (5%), glycerin (20%), alkyl aryl polyglycol ether (1%), fatty alcohol polyoxyethylene ether (1%), Tween-807 (1%), ethyl paraben (0.1%), distilled water (about 31-55%), and it was mixed with an appropriate amount of CLY series compound liquid to form a mixed emulsion. The cream matrix used in this embodiment refers to the matrix components after the active ingredients were removed from the cream.
SPF grade female C57BL/6 mice were purchased at the age of 8 weeks (0.02 kg), 6 in each group, and randomly divided into the blank control group, model group, positive drug group, CLY-1 treatment group (0.1% CLY-1 cream for external use), CLY-2 treatment group (0.1% CLY-2 cream for external use), CLY-3 treatment group (0.1% CLY-3 cream for external use), CLY-4 treatment group (0.1% CLY-4 cream for external use), CLY-8 treatment group (0.1% CLY-8 cream for external use), CLY-11 treatment group (0.1% CLY-11 cream for external use) CLY-19 treatment group (0.1% CLY-19 cream for external use), CLY-36 treatment group (0.1% CLY-36 cream for external use) and CLY-39 treatment group (0.1% CLY-39 cream for external use).
Model establishment: the normal control group mice were smeared with 75% ethanol 14.3 ul on both ears, while the model group, positive drug group and treatment group were smeared with 1 nmol/L carpotriol liniment 14.3 ul on both ears at a regular time every day, and then smeared with 20 g/L OVA 25 ul after air drying, once a day, for 12 days to make a model.
From 4 days after the start of modeling, applied the cream matrix on the ear skin of mice in the blank control group and the model group, applied aloxone on the ear skin of mice in the positive drug group, and applied the treatment cream on the ear skin of mice in each treatment group respectively, twice a day in the morning and evening, for 10 consecutive days, took photos every day, and recorded scores.
The thickness of mouse auricle was measured and recorded with ear thickness measuring instrument before and on the 14th day respectively. After the measurement on the 14th day, the mice were sacrificed. Blood was taken and serum was separated.

Structure (SMILES) | VEGFprotein in lung tissue [1] | MMP-2 expression in lung tissue [1] | MMP-9 expression in lung tissue [1] | TIMP-1 expression in lung tissue [1] | VEGF-mRNA in lung tissue [1] | CAT in peripheral blood [1] | SOD in peripheral blood [1] | Body mass (RA model) | Swelling degree (right toe joint) (RA model) | IL-10 in serum (RA model) | IL-17 in serum (RA model) | Joint score (arthritis score) (RA model) | Ear thickness (mouse eczema model)
CN1CCC[C@@H](N(C(=O)c2ccc(-n3nnc4cccnc43)cc2)c2ncccc2Cl)C1 [CLY-1, (R)-4-(3H-[1,2,3]triazolo[4,5-b]pyridin-3-yl)-N-(3-chloropyridin-2-yl)-N-(1-methylpiperidin-3-yl)benzamide] | 52.16 ± 3.61 pg/mL | 2.43 ± 0.21 | 3.32 ± 0.23 | 7.82 ± 0.45 | 0.76 ± 0.11 | 14.13 ± 1.22 kU/g | 214.58 ± 13.53 U/ml | 354.5 ± 13.48 g | 9.7 ± 0.68 mm | 65.36 ± 6.78 pg/mL | 46.15 ± 4.23 pg/mL | 4.35 ± 0.37 | 0.251 mm
CCN1CCC[C@@H](N(C(=O)c2ccc(-n3nnc4cccnc43)cc2)c2ncccc2Cl)C1 [CLY-2, (R)-4-(3H-[1,2,3]triazolo[4,5-b]pyridin-3-yl)-N-(3-chloropyridin-2-yl)-N-(1-ethylpiperidin-3-yl)benzamide] | 51.18 ± 3.69 pg/mL | 2.51 ± 0.24 | 3.36 ± 0.25 | 8.06 ± 0.49 | 0.71 ± 0.12 | 14.28 ± 1.39 kU/g | 216.62 ± 13.55 U/ml | 358.2 ± 13.92 g | 9.4 ± 0.53 mm | 67.03 ± 7.02 pg/mL | 46.23 ± 3.96 pg/mL | 4.21 ± 0.29 | 0.246 mm
CNC1CCCC(N(C(=O)c2ccc(-n3nnc4cccnc43)cc2)c2ncccc2Cl)C1 (stereo not shown) [CLY-3] | – | – | – | – | – | – | – | – | – | – | – | – | 0.297 mm
O=C(c1ccc(-n2nnc3cccnc32)cc1)N(c1ncccc1Cl)C1CCCC(O)C1 (stereo not shown) [CLY-4] | – | – | – | – | – | – | – | – | – | – | – | – | 0.323 mm
O=C(c1ccc(-n2nnc3cccnc32)cc1)N(c1ncccc1Cl)[C@@H]1CCNC1 [CLY-8, (R)-4-(3H-[1,2,3]triazolo[4,5-b]pyridin-3-yl)-N-(3-chloropyridin-2-yl)-N-(pyrrolidin-3-yl)benzamide] | 53.16 ± 3.62 pg/mL | 2.44 ± 0.21 | 3.31 ± 0.21 | 8.82 ± 0.53 | 0.79 ± 0.13 | 14.75 ± 1.22 kU/g | 220.86 ± 13.78 U/ml | 363.5 ± 13.63 g | 9.5 ± 0.72 mm | 66.75 ± 6.78 pg/mL | 43.51 ± 4.16 pg/mL | 4.32 ± 0.41 | 0.245 mm
NC1CCCC(N(C(=O)c2ccc(-n3nnc4cccnc43)cc2)c2ncccc2Cl)C1 (stereo not shown) [CLY-11] | 49.86 ± 3.58 pg/mL | 2.52 ± 0.23 | 3.53 ± 0.26 | 8.13 ± 0.38 | 0.76 ± 0.13 | 13.96 ± 1.36 kU/g | 216.48 ± 13.16 U/ml | – | – | – | – | – | 0.278 mm
O=C(c1ccc(-c2ccccc2-c2nnn[nH]2)cc1)N(c1ncccc1Cl)[C@@H]1CCCNC1 [CLY-19] | – | – | – | – | – | – | – | – | – | – | – | – | 0.253 mm
O=C(c1ccc(-c2ccccc2Cl)cc1)N(c1ncccc1Cl)[C@@H]1CCCNC1 [CLY-36] | 53.87 ± 3.73 pg/mL | 2.59 ± 0.23 | 3.46 ± 0.25 | 7.63 ± 0.52 | 0.83 ± 0.13 | 13.26 ± 1.26 kU/g | 221.76 ± 13.57 U/ml | 352.6 ± 12.96 g | 9.3 ± 0.51 mm | 58.96 ± 5.89 pg/mL | 44.18 ± 3.97 pg/mL | 4.46 ± 0.42 | 0.248 mm
Nc1ccccc1-c1ccc(C(=O)N(c2ncccc2Cl)[C@@H]2CCCNC2)cc1 [CLY-39] | – | – | – | – | – | – | – | – | – | – | – | – | 0.246 mm
